According to US8471005B2 (Cephalon, Inc., priority 2008, dated 2013):
Like-named read-outs stand apart in the source and are kept apart here.

Columns and labels:
ALK = biological target: T1, ALK (Homo sapiens, UniProt Q9UM73); assay: ALK Kinase Assay (ELISA/TRF, PLC-γ substrate); assay type: biochemical; conditions: read-out: ALK Potency
T1 construct: host or cells: baculovirus expression system
Summary of the method: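 Read-out is time-resolved fluorescence from a Eu-N1-labeled PT66 antibody that binds phosphorylated PLC-γ, the substrate coated at 10 μg/mL in TBS. ALK at 30 ng/ml starts the reaction, which runs 15 minutes at 37° C.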

JAK2 = biological target: T2, JAK2 (Homo sapiens, UniProt O60674); assay: Recombinant Human JAK2 Kinase Assay (TRF); assay type: biochemical; conditions: read-out: JAK2 Potency
T2 construct: host or cells: baculovirus expression system
T2 sequence (O60674 whole entry): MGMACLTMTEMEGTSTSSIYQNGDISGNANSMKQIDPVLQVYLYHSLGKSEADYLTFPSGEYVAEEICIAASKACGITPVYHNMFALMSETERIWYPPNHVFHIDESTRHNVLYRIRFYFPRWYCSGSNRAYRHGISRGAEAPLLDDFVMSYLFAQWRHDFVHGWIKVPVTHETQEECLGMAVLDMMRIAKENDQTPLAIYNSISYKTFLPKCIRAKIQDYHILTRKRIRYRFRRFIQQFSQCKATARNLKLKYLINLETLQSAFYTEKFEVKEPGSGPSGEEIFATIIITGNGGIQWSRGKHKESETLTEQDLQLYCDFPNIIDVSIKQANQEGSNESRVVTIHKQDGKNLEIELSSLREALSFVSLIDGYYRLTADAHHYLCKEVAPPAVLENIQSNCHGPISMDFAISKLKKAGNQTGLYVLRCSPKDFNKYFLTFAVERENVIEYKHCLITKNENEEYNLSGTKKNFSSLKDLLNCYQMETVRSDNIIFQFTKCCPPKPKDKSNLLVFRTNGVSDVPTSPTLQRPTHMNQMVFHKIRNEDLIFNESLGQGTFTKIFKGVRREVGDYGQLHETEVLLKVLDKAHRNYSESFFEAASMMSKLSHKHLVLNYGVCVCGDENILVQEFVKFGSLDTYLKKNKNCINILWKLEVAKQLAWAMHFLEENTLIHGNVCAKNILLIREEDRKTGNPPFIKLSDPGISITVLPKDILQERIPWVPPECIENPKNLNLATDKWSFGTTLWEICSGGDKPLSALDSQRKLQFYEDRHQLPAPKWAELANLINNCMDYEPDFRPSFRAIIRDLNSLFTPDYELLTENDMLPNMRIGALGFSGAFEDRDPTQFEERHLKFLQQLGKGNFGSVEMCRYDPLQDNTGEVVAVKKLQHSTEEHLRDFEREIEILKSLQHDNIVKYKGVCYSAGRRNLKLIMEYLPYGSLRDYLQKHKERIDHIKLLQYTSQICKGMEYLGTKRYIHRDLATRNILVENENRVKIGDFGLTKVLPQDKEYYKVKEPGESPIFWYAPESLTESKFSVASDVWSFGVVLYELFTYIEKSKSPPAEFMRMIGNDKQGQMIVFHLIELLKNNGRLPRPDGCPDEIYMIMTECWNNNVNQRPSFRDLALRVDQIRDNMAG
Summary of the method: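 Europium-labelled PY100 antibody reported tyrosine phosphorylation of a Neutravidin-captured biotinyl 15-mer peptide by JAK2 (baculovirus-expressed, 15 ng/ml). Conditions: 20 mM HEPES pH 7.2, 0.2 μM ATP, 1 mM MnCl2, 0.1% BSA, DMSO 2.5% final, 20 min at room temperature.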

[1] = ALK kinase inhibition, 1 μM ATP
[2] = JAK2 kinase inhibition, 0.2 μM ATP

T1 sequence (Q9UM73 19-1620): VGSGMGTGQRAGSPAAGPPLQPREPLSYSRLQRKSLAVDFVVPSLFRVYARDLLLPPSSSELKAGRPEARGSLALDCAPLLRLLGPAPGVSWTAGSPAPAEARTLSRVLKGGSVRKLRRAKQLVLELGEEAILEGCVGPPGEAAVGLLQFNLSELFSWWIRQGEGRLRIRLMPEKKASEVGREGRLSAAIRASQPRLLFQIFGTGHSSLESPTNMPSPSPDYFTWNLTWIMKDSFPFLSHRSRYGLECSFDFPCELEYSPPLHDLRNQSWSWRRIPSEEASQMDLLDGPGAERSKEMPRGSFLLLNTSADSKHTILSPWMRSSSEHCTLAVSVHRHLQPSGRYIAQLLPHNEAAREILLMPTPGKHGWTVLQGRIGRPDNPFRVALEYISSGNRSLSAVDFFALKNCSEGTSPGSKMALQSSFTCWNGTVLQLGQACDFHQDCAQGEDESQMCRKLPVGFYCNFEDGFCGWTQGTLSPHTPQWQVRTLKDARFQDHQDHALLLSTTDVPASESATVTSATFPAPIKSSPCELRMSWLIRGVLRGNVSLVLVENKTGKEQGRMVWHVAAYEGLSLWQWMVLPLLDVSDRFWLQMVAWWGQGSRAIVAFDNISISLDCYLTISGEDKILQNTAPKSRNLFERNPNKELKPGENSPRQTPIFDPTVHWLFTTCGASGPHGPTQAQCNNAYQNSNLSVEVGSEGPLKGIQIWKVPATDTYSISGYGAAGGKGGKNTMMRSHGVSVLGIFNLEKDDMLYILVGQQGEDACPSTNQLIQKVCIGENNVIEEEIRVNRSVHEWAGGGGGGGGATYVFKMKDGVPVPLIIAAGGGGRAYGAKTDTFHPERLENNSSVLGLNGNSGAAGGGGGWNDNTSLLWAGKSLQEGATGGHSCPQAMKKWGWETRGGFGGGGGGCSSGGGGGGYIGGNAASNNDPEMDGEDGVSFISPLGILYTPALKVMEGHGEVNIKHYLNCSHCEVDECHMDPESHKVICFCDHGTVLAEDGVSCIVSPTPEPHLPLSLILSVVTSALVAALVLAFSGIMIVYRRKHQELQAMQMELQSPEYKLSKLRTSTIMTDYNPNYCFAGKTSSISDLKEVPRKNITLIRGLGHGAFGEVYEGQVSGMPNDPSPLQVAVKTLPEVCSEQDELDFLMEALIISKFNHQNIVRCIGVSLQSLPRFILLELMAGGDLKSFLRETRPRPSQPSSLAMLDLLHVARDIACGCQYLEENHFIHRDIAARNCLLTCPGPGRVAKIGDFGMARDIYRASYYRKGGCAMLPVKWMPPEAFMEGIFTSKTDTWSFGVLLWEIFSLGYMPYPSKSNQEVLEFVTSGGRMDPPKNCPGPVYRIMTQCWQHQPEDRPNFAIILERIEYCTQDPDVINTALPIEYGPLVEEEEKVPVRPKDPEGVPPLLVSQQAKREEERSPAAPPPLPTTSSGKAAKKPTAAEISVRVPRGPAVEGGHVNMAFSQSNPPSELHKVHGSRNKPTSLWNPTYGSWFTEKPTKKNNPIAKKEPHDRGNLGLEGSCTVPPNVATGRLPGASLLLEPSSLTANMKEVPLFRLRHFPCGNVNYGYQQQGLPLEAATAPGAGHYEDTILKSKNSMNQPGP

IC50 (ALK; [1]) [nM]	IC50 (JAK2; [2]) [nM]	IC50 (ALK; ALK Kinase Inhibition) [nM]	IC50 (JAK2; JAK2 Kinase Inhibition) [nM]	Compound
< 100	100 to 1000			COc1cc(C2CCN(C(=O)C3CCN3)CC2)ccc1Nc1ncc2ccc(-c3ccccc3OC)n2n1 (racemic) [Example 862, (±)-Azetidin-2-yl-(4-{3-methoxy-4-[7-(2-methoxy-phenyl)-pyrrolo[2,1-f][1,2,4]triazin-2-ylamino]-phenyl}-piperidin-1-yl)-methanone]
100 to 1000	< 100			COc1ccccc1-c1ccc2cnc(Nc3ccn(CC(=O)N4CCN(C)CC4)n3)nn12 [Example 1114, 2-{3-[7-(2-Methoxy-phenyl)-pyrrolo[2,1-f][1,2,4]triazin-2-ylamino]-pyrazol-1-yl}-1-(4-methyl-piperazin-1-yl)-ethanone]
100 to 1000	< 100			CC(C)(C)NS(=O)(=O)c1cccc(-c2ccc3cnc(Nc4ccc(CN5CCS(=O)(=O)CC5)cc4)nn23)c1 [Example 1057, N-tert-Butyl-3-{2-[4-(1,1-dioxo-1 $1(6)-thiomorpholin-4-ylmethyl)-phenylamino]-pyrrolo[2,1-f][1,2,4]triazin-7-yl}-benzenesulfonamide]
		1000 to 10000	< 100	CS(=O)(=O)c1ccc(-c2ccc3cnc(Nc4ccc(N5CCOCC5)nc4)nn23)cc1 [Example 60, [7-(4-Methanesulfonyl-phenyl)-pyrrolo[2,1-f][1,2,4]triazin-2-yl]-(6-morpholin-4-yl-pyridin-3-yl)-amine]
		> 10000	< 100	CS(=O)(=O)c1ccc(-c2ccc3cnc(Nc4ccc5[nH]c(CN6CCOCC6)nc5c4)nn23)cc1 [Example 1541, [7-(4-Methanesulfonyl-phenyl)-pyrrolo[2,1-f][1,2,4]triazin-2-yl]-(2-morpholin-4-ylmethyl-1H-benzimidazol-5-yl)-amine]
		100 to 1000	< 100	CS(=O)(=O)Nc1cccc(-c2ccc3cnc(Nc4ccc(F)c(N5CCOCC5)c4)nn23)c1 [Example 390, N-{3-[2-(4-Fluoro-3-morpholin-4-yl-phenylamino)-pyrrolo[2,1-f][1,2,4]triazin-7-yl]-phenyl}-methanesulfonamide]
100 to 1000	< 100			COc1ccncc1-c1ccc2cnc(Nc3ccc(N4CCN(C)CC4)cc3)nn12 [Example 1210, [7-(4-Methoxy-pyridin-3-yl)-pyrrolo[2,1-f][1,2,4]triazin-2-yl]-[4-(4-methyl-piperazin-1-yl)-phenyl]-amine]
		< 100	< 100	OCCN1CCN(c2cccc(Nc3ncc4ccc(-c5cccc(Cl)c5)n4n3)c2)CC1 [Example 179, 2-(4-{3-[7-(3-Chloro-phenyl)-pyrrolo[2,1-f][1,2,4]triazin-2-ylamino]-phenyl}-piperazin-1-yl)-ethanol]
100 to 1000	1000 to 10000			COc1ccccc1-c1ccc2cnc(Nc3cccc(C(=O)N4CCN(C)CC4)c3OC)nn12 [Example 1231, {2-Methoxy-3-[7-(2-methoxy-phenyl)-pyrrolo[2,1-f][1,2,4]triazin-2-ylamino]-phenyl}-(4-methyl-piperazin-1-yl)-methanone]
		1000 to 10000	< 100	CN1C(=O)Cc2cc(Nc3ncc4ccc(-c5ccc(S(C)(=O)=O)cc5)n4n3)ccc21 [Example 373, 5-[7-(4-Methanesulfonyl-phenyl)-pyrrolo[2,1-f][1,2,4]triazin-2-ylamino]-1-methyl-1,3-dihydro-indol-2-one]
		< 100	100 to 1000	COc1cc(N2CCC(N3CCC(F)(F)CC3)CC2)ccc1Nc1ncc2ccc(-c3ccccc3N(C)S(C)(=O)=O)n2n1 [Example 1474, N-(2-{2-[4-(4,4-Difluoro-[1,4′]bipiperidinyl-1′-yl)-2-methoxy-phenylamino]-pyrrolo[2,1-f][1,2,4]triazin-7-yl}-phenyl)-N-methyl-methanesulfonamide]
		100 to 1000	< 100	N-{2-tert-Butyl-5-[7-(5-chloro-2-methoxy-phenyl)-pyrrolo[2,1-f][1,2,4]triazin-2-ylamino]-phenyl}-acetamide [Example 305]
		100 to 1000	< 100	CN(c1ccccc1-c1ccc2cnc(Nc3ccc(F)c(N4CCOCC4)c3)nn12)S(C)(=O)=O [Example 388, N-{2-[2-(4-Fluoro-3-morpholin-4-yl-phenylamino)-pyrrolo[2,1-f][1,2,4]triazin-7-yl]-phenyl}-N-methyl-methanesulfonamide]
		100 to 1000	100 to 1000	COc1cc(N2CCC(N3CCOCC3)CC2)ccc1Nc1ncc2ccc(-c3ccccc3NS(C)(=O)=O)n2n1 [Example 1450, N-(2-{2-[2-Methoxy-4-(4-morpholin-4-yl-piperidin-1-yl)-phenylamino]-pyrrolo[2,1-f][1,2,4]triazin-7-yl}-phenyl)-methanesulfonamide]
1000 to 10000	100 to 1000			CS(=O)(=O)Nc1ccncc1-c1ccc2cnc(Nc3ccc(N4CCOCC4)cc3)nn12 [Example 1219, N-{3-[2-(4-Morpholin-4-yl-phenylamino)-pyrrolo[2,1-f][1,2,4]triazin-7-yl]-pyridin-4-yl}-methanesulfonamide]
1000 to 10000	< 100			c1c[nH]c(-c2ccc3cnc(Nc4ccc(N5CCOCC5)cc4)nn23)c1 [Example 1291, (4-Morpholin-4-yl-phenyl)-[7-(1H-pyrrol-2-yl)-pyrrolo[2,1-f][1,2,4]triazin-2-yl]-amine]
		> 10000	< 100	O=C(O)c1ccc(-c2ccc3cnc(Nc4ccc(N5CCOCC5)cc4)nn23)cc1 [Example 45, 4-[2-(4-Morpholin-4-yl-phenylamino)-pyrrolo[2,1-f][1,2,4]triazin-7-yl]-benzoic acid]
		100 to 1000	< 100	COc1ccc(Cl)cc1-c1ccc2cnc(Nc3ccc(C(=O)N4CCOCC4)cc3)nn12 [Example 315, {4-[7-(5-Chloro-2-methoxy-phenyl)-pyrrolo[2,1-f][1,2,4]triazin-2-ylamino]-phenyl}-morpholin-4-yl-methanone]
100 to 1000	1000 to 10000			COc1ccccc1-c1ccc2cnc(Nc3cccc(C(=O)N4CCN(CCO)CC4)c3OC)nn12 [Example 1233, [4-(2-Hydroxy-ethyl)-piperazin-1-yl]-{2-methoxy-3-[7-(2-methoxy-phenyl)-pyrrolo[2,1-f][1,2,4]triazin-2-ylamino]-phenyl}-methanone]
< 100	100 to 1000			COc1cc(CN2CCN(C(=O)CN)CC2)ccc1Nc1ncc2ccc(-c3ccccc3OC)n2n1 [Example 1244, 2-Amino-1-(4-{3-methoxy-4-[7-(2-methoxy-phenyl)-pyrrolo[2,1-f][1,2,4]triazin-2-ylamino]-benzyl}-piperazin-1-yl)-ethanone]
		> 10000	< 100	[5-Bromo-7-(4-methanesulfonyl-phenyl)-pyrrolo[2,1-f][1,2,4]triazin-2-yl]-(4-morpholin-4-yl-phenyl)-amine [Example 99]
		100 to 1000	< 100	COc1ccc(Cl)cc1-c1ccc2cnc(Nc3ccc4c(c3)CC(=O)N4C)nn12 [Example 360, 5-[7-(5-Chloro-2-methoxy-phenyl)-pyrrolo[2,1-f][1,2,4]triazin-2-ylamino]-1-methyl-1,3-dihydro-indol-2-one]
100 to 1000	< 100			CC(C)S(=O)(=O)c1cccc(-c2ccc3cnc(Nc4ccc(C5CCN(CC(N)=O)CC5)cc4)nn23)c1 [Example 570, 2-[4-(4-{7-[3-(Propane-2-sulfonyl)-phenyl]-pyrrolo[2,1-f][1,2,4]triazin-2-ylamino}-phenyl)-piperidin-1-yl]-acetamide]
> 10000	100 to 1000			Cn1cc(-c2ccc3cnc(N4CCC(Oc5cccc(N)c5)CC4)nn23)cn1 [Example 598, 3-{1-[7-(1-Methyl-1H-pyrazol-4-yl)-pyrrolo[2,1-f][1,2,4]triazin-2-yl]-piperdin-4-yloxy}-phenylamine]
1000 to 10000	< 100			COc1ccccc1-c1ccc2cnc(Nc3ccc4c(c3)N(C)CCC4)nn12 [Example 982, [7-(2-Methoxy-phenyl)-pyrrolo[2,1-f][1,2,4]triazin-2-yl]-(1-methyl-1,2,3,4-tetrahydro-quinolin-7-yl)-amine]
100 to 1000	< 100			CC(C)(C)NS(=O)(=O)c1cccc(-c2ccc3cnc(Nc4cccc(OCCN5CCOCC5)c4)nn23)c1 [Example 1001, N-tert-Butyl-3-{2-[3-(2-morpholin-4-yl-ethoxy)-phenylamino]-pyrrolo[2,1-f][1,2,4]triazin-7-yl}-benzenesulfonamide]
< 100	100 to 1000			COc1cc(C2CCN(CC(N)=O)CC2)ccc1Nc1ncc2ccc(-c3cccc4c3OCC4)n2n1 [Example 703, 2-(4-{4-[7-(2,3-Dihydro-benzofuran-7-yl)-pyrrolo[2,1-f][1,2,4]triazin-2-ylamino]-3-methoxy-phenyl}-piperidin-1-yl)-acetamide]
< 100	< 100			COc1ccccc1-c1ccc2cnc(Nc3ccc(OCCN4CCOCC4)cc3)nn12 [Example 1101, [7-(2-Methoxy-phenyl)-pyrrolo[2,1-f][1,2,4]triazin-2-yl]-[4-(2-morpholin-4-yl-ethoxy)-phenyl]-amine]
1000 to 10000	< 100			CN1CCN(C)C(c2cccc(Nc3ncc4ccc(-c5cccc(S(=O)(=O)NC(C)(C)C)c5)n4n3)c2)C1=O (stereo not shown) [Example 1077, N-tert-Butyl-3-{2-[3-(1,4-dimethyl-3-oxo-piperazin-2-yl)-phenylamino]-pyrrolo[2,1-f][1,2,4]triazin-7-yl}-benzenesulfonamide]
